This is an account of results in patent publication US20250388572A1, “USE OF HPK1 INHIBITOR IN PREVENTION AND/OR TREATMENT OF HUMAN PATHOGEN INFECTION” (priority 2022, published 2025).

Like-named read-outs stand apart in the source and are kept apart here.

One data set relates to MHV-A59 virus. Nature of the data set: Pharmacodynamic evaluation for MHV, low-dose virus group. It counts as in vivo, C57BL/6 mice. The following applies: 4×10^5 PFU, day 8, control 19.19%. The protocol: The effect of A2 on the prevention and treatment of MHV was investigated.
Low-dose virus group: 21 male SPF grade C57BL/6 mice, aged 4 weeks, were divided into three groups: control group, precaution group and therapy group. These mice were anesthetized and then injected intrahepatically (i.h.) with 100 μL of DMEM containing 4×10^5 PFU MHV-A59 virus. The precaution group was given the first dose of A2 at 10 mg/kg 24 hours before the challenge, and the therapy group was given the first dose of A2 at 10 mg/kg 24 hours after the challenge, followed by daily continuous administration (both the precaution group and the therapy group were given a daily dose of 10 mg/kg). The infected mice were monitored daily. Blood samples were collected from the retro-orbital venous plexus on day 0 and day 4 after infection, and serum was extracted to detect alanine aminotransferase (ALT)/alanine aminotransferase (GPT) levels. On day 8 after infection, all groups of mice were sacrificed. Liver tissues were taken for virus titer determination and histological analysis, and spleen tissues were taken for virus specific T proliferation assay.

The test system of the next data set is hPBMCs. Nature of the data set: Pharmacodynamic evaluation for hPBMCs (IL-2 by ELISA). It counts as cell-based, human. The following applies: 1 uM, 24 hours, CD3/CD28-activated hPBMCs. The protocol: The hPBMCs used in this experiment were purchased from Shanghai AoNeng Biotechnology Co., Ltd. CD3 antibody was pre-coated onto a 96-well plate for future use. Cells were seeded into the 96-well plate at 2×10^6/ml, with 200 μL per well. CD28 antibody was added for activation, and Compound A2 was added at a final concentration of 1 μM. The supernatant was collected after 24 hours of treatment. IL-2 levels were determined by ELISA, and the effects of A2 and CD3/CD28 on the activation of hPBMCs were compared.

The subject of another data set is SARS-Cov-2 virus. Briefly: Pharmacodynamic evaluation for Covid 19 in hamsters. The data set is classed as in vivo, Syrian golden hamsters. The protocol: A total of 20 wild-type Syrian golden hamsters, aged 6-8 weeks, with half male and half female, were randomly divided into two groups: control group (n=4), and therapy group consisting of 5 mg/kg and 20 mg/kg groups, with 8 mice per group. Starting from day 0 (DO), the hamsters in the therapy group were given A2 orally at a total daily dose of 5 mg/kg or 20 mg/kg, and the control group was given an equal amount of blank drug orally daily. Meanwhile, on day 0, all hamsters were anesthetized and then inoculated intranasally with 100 uL of 1.375×10^6 PFU/mL SARS-Cov-2 virus. Clinical manifestations and body weight were monitored daily. At the end of the study, tissues (e.g., lungs) were collected and weighed, and virus RNA and infectious virus were then quantified.

The conditions of data set [1]: rat, microsomes, 1 h, 10 µM. As for the experimental part:
(§1) The procedure for identifying microsomal metabolites is as follows:
(§2) The compounds (test compounds and their numbers are shown below, among which compounds A1 and B1 are prepared by referring to the relevant method disclosed in CN110396087A) were weighed and dissolved into dimethyl sulfoxide to prepare a 20 mM solution. The compound stock solution was diluted with 50% acetonitrile in water (v/v) to a concentration of 1.0 mM as a working solution. Liver microsomes (20 mg/mL) were diluted to 1.27 mg/mL with 50 mM dipotassium hydrogen phosphate buffer as a liver microsome working solution. Reduced coenzyme was weighed and dissolved in 3307 μL of phosphate buffer (50 mM) to 5.0 mM as a reduced coenzyme working solution. For T=60 minutes samples, 4 μL of test working solution (1.0 mM) was added, followed by 316 μL of liver microsome working solution (1.27 mg/mL), and finally, 80 μL of reduced coenzyme working solution was added to start the reaction. For T=0 minutes samples, 316 μL of liver microsome working solution (1.27 mg/mL) was added and then 80 μL of reduced coenzyme working solution was added to start the reaction, without test solution incubation. After incubation at 37° C. for 60 minutes, 1200 μL of stop solution was added to stop the enzyme reaction. For T=0 minute samples, 4 μL of test working solution (1.0 mM) was added. The sample plate was placed on a vortexer and vortexed at 600 rpm for 5 minutes. Then, the sample plate was centrifuged at 4000 rpm for 10 minutes. The supernatant was removed, mixed, and dried at room temperature with nitrogen. The residue dried with nitrogen was redissolved in 300 μL of 10% acetonitrile (0.1% FA) solvent and then centrifuged at 4000 rpm for 15 minutes. The supernatant was transferred to a detection plate for mass spectrometry. Mass spectrometry was performed using LC/Q-Exactive plus.
(§3) 7-Ethoxycoumarin (10 μM) was selected as a positive control compound and operated in parallel with the compounds.

The nature of data set [2]: in vivo. To be noted: male, cynomolgus monkey. The protocol:
Three male Cynomolgus macaques were administrated a single dose via intravenous injection (iv, 1 mg/kg, n=3), followed by oral administration (po, 10 mg/kg, n=3) after washing out for one week. Intravenous injection was performed by formulating the compounds into 1.0 mg/mL solutions using water or 10% DMSO/30% PEG400/water and administering it at a volume of 1 mL/kg. Oral administration was performed by formulating the compounds into 2.0 mg/mL solutions or suspensions using water or 0.5% methylcellulose/1.7 meq 1N hydrochloric acid and administering it at a volume of 5 mL/kg.
The pharmacokinetic parameters of the compounds were calculated using the non-compartmental model.

The conditions of data set [3]: cynomolgus macaque, microsomes, 1 h, 10 µM. As for the experimental part:
as §1, §2, §3

The conditions of data set [4]: beagle, dog, microsomes, 1 h, 10 µM. As for the experimental part: as §1, §2, §3
Data set [5] can be described thus: in vivo. The following applies: male, Sprague Dawley, rat. As for the experimental part:
Six male Sprague Dawley rats were administrated a single dose via intravenous injection (iv, n=3) and oral administration (po, n=3), respectively. Intravenous injection was performed by formulating the compounds into 0.25 mg/ml or 0.5 mg/mL solutions using 10% DMSO/30% PEG400/60% water and administering it at a volume of 2 mL/kg. Oral administration was performed by formulating the compounds into 0.6 mg/ml or 2.0 mg/mL homogeneous suspensions using 0.5% methylcellulose and administering it at a volume of 5 mL/kg.
The pharmacokinetic parameters of the compounds were calculated using the WinNolin non-compartmental model.

Broadly, the bioavailability is dose-corrected exposure relative to a reference, in per cent. In general, AUC(0-t) refers to exposure summed from dosing to a finite time, without extrapolation to infinity. What is called clearance is the rate of elimination divided by the concentration. `[2H]C([2H])([2H])N1CCC(n2cc(-c3cnc(N)c(OCc4cccc(C#CC(C)(C)O)c4)c3)cn2)CC1` [Compound A2, 4-(3-(((2-amino-5-(1-(1-trideuteriomethylpiperidin-4-yl)-1H-pyrazol-4-yl)pyridin-3-yl)oxy)methyl)phenyl)-2-methylbut-3-yn-2-ol]: the “average proliferation rate of spleen cells (virus specific T cell proliferation)” value in the data set with MHV-A59 virus (precaution group, 10 mg/kg daily from 24 hours before challenge) is 28.18%; in the data set on MHV-A59 virus (therapy group, 10 mg/kg daily from 24 hours after challenge), 52.95%. Further, in the data set on hPBMCs, the “IL-2 concentration ratio (stimulated by A2−unstimulated)/(stimulated−unstimulated)” value is on record as 5.89 fold. In addition, in the data set with SARS-Cov-2 virus (20 mg/kg daily, oral), the “body weight of SARS-Cov-2 infected hamsters” value is “gained weight at a much faster rate”. Besides, the “lung weight normalized to total body weight” value in the data set on SARS-Cov-2 virus (all A2 dose groups (5 mg/kg and 20 mg/kg daily, oral)) is recorded as “decreased”. For the same compound, the “remaining percentage of the parent cores after 60 min” value was determined as 52.1% in data set [1], 29.6% in data set [3] and 7.0% in data set [4]. Besides, the bioavailability in the data set “in vivo [2]” amounted to 18.8%; in the data set “in vivo [5]” (po, 10 mg/kg) it was 23.2%. For the same compound, the AUC(0-t) was determined as 949 ng·h/mL in “in vivo [2]” (iv, 1 mg/kg); 1760 ng·h/mL in the data set “in vivo [2]” (po, 10 mg/kg); 247 ng·h/mL in the data set “in vivo [5]” (iv, 1 mg/kg); 572 ng·h/mL in “in vivo [5]” (po, 10 mg/kg). In addition, the clearance in the data set “in vivo [2]” (iv, 1 mg/kg) is 16.7 mL/min/kg; in the data set “in vivo [5]” (iv, 1 mg/kg), 71 mL/min/kg.
